Test results published in patent US20080279843A1, “Method For Improving Insulin Sensitivity By Administering an Inhibitor of Antitrypsin” (Essential SkinCare, LLC, priority 2003, published 2008).
“Also recorded” adds a separate entry of the source.

Experiments:
AT activity = AT activity (Homo sapiens, UniProt P01009); conditions: daily oral administration of GF at the 600 mg level; Janciauskiene and Eriksson 1994; cited from earlier work
AT = AT (Homo sapiens, UniProt P01009); assay: Prevention of the inhibitory effect of AT on insulin-stimulated glycogen synthesis in differentiated L6 cells (Example 7); format: cell-based; conditions: FIG. 5
Sequence of AT (P01009 25-418): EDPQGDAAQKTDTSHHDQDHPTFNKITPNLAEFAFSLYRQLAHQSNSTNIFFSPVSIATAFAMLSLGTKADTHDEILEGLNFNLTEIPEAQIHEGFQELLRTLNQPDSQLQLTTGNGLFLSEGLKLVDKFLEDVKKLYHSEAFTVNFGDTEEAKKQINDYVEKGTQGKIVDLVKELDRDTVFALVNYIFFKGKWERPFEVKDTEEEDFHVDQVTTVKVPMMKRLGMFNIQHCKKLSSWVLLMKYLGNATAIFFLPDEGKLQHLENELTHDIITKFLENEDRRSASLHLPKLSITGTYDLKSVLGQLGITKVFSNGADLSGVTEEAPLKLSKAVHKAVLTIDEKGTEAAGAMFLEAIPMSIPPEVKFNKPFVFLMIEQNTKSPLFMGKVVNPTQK
Description: (§1) Rat L6 skeletal muscle cells were obtained from the American Type Culture Collection, Rockville, Md. L6 cell monolayers were induced to differentiate in Minimal Essential Medium (MEM) containing 2% (v/v) fetal bovine serum (FBS) and 1% (v/v) antibiotic/antimycotic solution. The cells were fed fresh medium every 48 hours. Myoblast differentiation, which occurred by about the 7-9th day, was monitored by phase contrast microscopy. Differentiated L6 cells are widely used models for studying glucose metabolism in the skeletal muscle. The present study was focused on these cells, because skeletal muscle accounts for about 70-80% of total blood glucose metabolism in the human body.
To examine cellular glucose uptake and metabolism, differentiated (attached) cells in 12-well plates were incubated at 37° C. in a CO2 incubator (95% air: 5% CO2) with D-[^14C]glucose (1 μCi/mL) in 2% FBS-containing medium containing 5.5 mM unlabeled glucose for 0.5-6 hours as indicated at the corresponding Figures. […] Cells were washed twice with 3 ml medium to remove traces of medium containing unincorporated radioactivity. […]
Aliquots of the upper and lower phases were taken to scintillation vials to determine the amounts of radiolabeled glucose and total lipids, respectively, by liquid scintillation counting. […] No additional radioactivity could be removed from the well by neutralized 30% KOH. […]

humans = conditions: 600-1200 mg GF once daily, oral, in humans; literature studies; cited from earlier work
C57/Black female mice [1] = assay: Glucose tolerance test with insulin and purified AT (Example 3); format: in vivo; conditions: for Glucose level: mice fasted 16 h, glucose 3 g/kg i.p., insulin 0.5 I.U. 15 min before glucose, purified AT 1200 μg i.p. 24 h before glucose, mean ± S.D., n=5
Description: C57/Black female mice weighing 23-25 g were fasted for 16 hours. Five animals were used for each of the three treatment groups. The first treatment group received intraperitoneal injections of 1200 μg purified AT, i.e. AT purified by the procedure of Example 1. Exactly 23 hours and 45 minutes after the AT was administered to the first treatment group, the animals in the first and second treatment group received 0.5 I.U. of insulin. Exactly 15 minutes after the insulin was administered (i.e., 24 hours after AT was administered to the first treatment group), glucose (3 g/kg) was injected intraperitoneally into the first, second and third treatment group. Blood samples were immediately measured with the fast Glucose C test (Wako Chemicals Inc. Richmond, Va., USA). The data presented are the mean ±S.D. of five determinations, one with each animal.

[2] = system: differentiated rat L6 muscle cells; assay: Cellular uptake of D-[14C]glucose; format: cell-based; conditions: FIG. 3A; 500 nM insulin; incubations for 2-6 hours
Description: as §1
(§2) To examine cellular glucose uptake and metabolism, differentiated (attached) cells in 12-well plates were incubated at 37° C. in a CO2 incubator (95% air: 5% CO2) with D-[^14C]glucose (1 μCi/mL) in 2% FBS-containing medium containing 5.5 mM unlabeled glucose for 0.5-6 hours as indicated at the corresponding Figures. At the termination of incubation, the medium was removed. An aliquot of the medium was taken to determine the loss of [^14C]glucose from the medium which corresponds to its uptake by cells. Cells were washed twice with 3 ml medium to remove traces of medium containing unincorporated radioactivity. Ice-cold 99.8% methanol/0.2% water (v/v) mixture (1 ml) was then added to the monolayers and cells were extracted for 2 hours at −20° C. […] The methanol phase (1 ml) and a following 1 ml methanol wash were added to 2 ml chloroform followed by the addition of 3 ml water. Of the resulting two phases (separation was facilitated by brief centrifugation), the lower phase contained the total radiolabeled lipids, while the upper phase contained [^14C]glucose.
(§3) Aliquots of the upper and lower phases were taken to scintillation vials to determine the amounts of radiolabeled glucose and total lipids, respectively, by liquid scintillation counting. Precipitated [^14C]glycogen was suspended in 0.75 ml of 1 M NaOH and transferred to scintillation vial. This procedure was repeated with another 0.75 ml aliquot of NaOH. To neutralize the suspension, […] (approximately 150 μL) was then added to the vials, followed by the addition of 8.5 ml Ecolume (scintillation fluid). While the 1 M NaOH suspension contained some particulate material (mostly protein which was not labeled with radiolabeled glucose), no precipitate remained in the suspension after addition of Ecolume. […] No additional radioactivity could be removed from the well by neutralized 30% KOH.
(§4) Three groups of differentiated L6 cells, incubated in 12-well plates in 2% FBS-containing medium, were treated as follows. A first control group ([…]) was untreated. A second group (▴) was treated with 500 nM insulin for 30 min. A third group (▪) was treated first with 0.4 mg/ml of AT followed by an addition of 500 nM insulin for 30 min. Following the addition of D-[^14C]glucose, each group was incubated in the continuous presence of insulin and AT, as described above, for 0.5-6 hours.
Four groups of differentiated L6 cells, incubated in 12-well plates in 2% FBS-containing medium, were treated as follows. A first control group was untreated. A second group was treated with 500 nM insulin for 30 min. A third group was treated with 0.05 to 0.4 mg/ml of AT for 10 min. Finally, a fourth group was treated with 0.05 to 0.4 mg/ml of AT for 10 min followed by the addition of 500 nM insulin for 30 min. […]

[3] = system: differentiated rat L6 muscle cells; assay: Synthesis of [14C]glycogen from radiolabeled glucose; format: cell-based; conditions: 500 nM insulin
Description: as §1, §2, §3
In some experiments, a published procedure [Huang, D., Cheung, A. T., Parsons, J. T. and Bryer-Ash, M. “Focal adhesion kinase (FAK) regulates insulin-stimulated glycogen synthesis in hepatocytes.” J. Biol. Chem. 277, 18151-18160, (2002)] was used to determine glucose incorporation into glycogen in a method similar to the one described above. After incubations with [^14C] glucose, cells were solubilized with 20% KOH for 2 hours. Lysates were extracted with 8% […], neutralized with 2.0 M HCl, then boiled for 5 min. The total glycogen was precipitated by the addition of 80% ethanol (final concentration) for 2 hours at −20° C. followed by centrifugation at 1100×g for 10 min. This step was repeated.
After the pellets had been re-dissolved in distilled water, the samples were precipitated again using the same method described above, and yielded essentially the same results. In subsequent experiments the initial methanol precipitation method described above was used because it allowed for analysis of cellular glucose, glycogen and lipids from the same sample.
as §4, with “Following the addition of D-[^14C]glucose, each group was incubated in the continuous presence of insulin and AT, as described above, for 0.5-6 hours.” left out

C57/Black female mice [4] = assay: Glucose tolerance test with insulin and commercial AT (Example 2); format: in vivo; conditions: FIG. 2; fasting (16 h) mice; insulin 0.5 I.U. 15 min before glucose 3 g/kg i.p.
Description: C57/Black female mice weighing 22-23 g were fasted for 16 hours. Four animals were used for each of four treatment groups. The first and fourth treatment group received intraperitoneal injections of 1500 μg commercially obtained AT. Exactly 23 hours and 45 minutes after the AT was administered to the first and fourth treatment group, the animals in the first and second treatment group received 0.5 I.U. of insulin. Exactly 15 minutes after the insulin was administered (i.e., 24 hours after the AT was administered to the first treatment group), glucose (3 g/kg) was injected intraperitoneally into the first, second and third treatment groups. Blood samples were taken from the eyes (canthus), and glucose concentrations in whole blood samples were immediately measured with the fast Glucose C test (Wako Chemicals USA Inc., Richmond, Va., USA). The data presented are the mean ±S.D. of four determinations, one with each animal.

Sequence of AT activity (P01009 25-418): as above

Compound	Inhibition of AT activity (AT activity)	Effect of GF or LCA on the inhibitory effect of AT on insulin-stimulated glycogen synthesis (AT; 25 mM GF or 50 μM LCA added 60 min prior to AT (0.4 mg/ml), 500 nM insulin, 5 hours)	Effect of GF or LCA on glycogen synthesis in the absence of AT (AT; 25 mM GF or 50 μM LCA, without AT)	Side effects (humans)	Glucose level (C57/Black female mice [1]; 0 min) [mM]	Glucose level (C57/Black female mice [1]; 30 min)	Glucose level (C57/Black female mice [1]; 60 min) [mM]	Glucose level (C57/Black female mice [1]; 180 min) [mM]	Glucose level (C57/Black female mice [1]; 360 min) [mM]	Effect of insulin on the rise in blood glucose level after glucose (C57/Black female mice [1]; insulin 0.5 I.U. 15 min before glucose 3 g/kg i.p.)	Stimulatory effect of insulin on uptake of D-[14C]glucose compared to untreated cells [2]	Stimulatory effect of insulin on synthesis of [14C]glycogen compared to untreated cells ([3]; FIG. 3B, incubations for 2-6 hours)	Stimulation of synthesis of [14C]glycogen by insulin ([3]; FIG. 5, 5 hours)	Effect of insulin on the rise in blood glucose level after glucose (C57/Black female mice [4])
Cc1ccc(C)c(OCCCC(C)(C)C(=O)O)c1 [GF, gemfibrozil]	30-60%	AT had no such inhibitory effect; also recorded: capable of preventing the strong inhibitory effect of AT	Neither GF nor LCA had a significant effect	In none of these studies did GF exert any significant side effects										
insulin [reference compound]					1.7 ± 0.2	N.D.* (N.D means not detectable (below 1 mM))	2.5 ± 0.2	3.0 ± 0.3	3.3 ± 0.3	initially strongly inhibited the rise in blood glucose level	approximately doubled; also recorded: more than two-fold stimulatory effects	approximately doubled; also recorded: more than two-fold stimulatory effects	about two-fold	initially strongly inhibited the rise in blood glucose level
